Molecular target: T1, DNA-PK phosphorylation at Serine 2056 (Homo sapiens, UniProt P78527)
T1 construct: host or cells: FaDu
Assay: Cellular Assay for Inhibition of DNA-PK Phosphorylation at Serine 2056 (FaDu cells, neocarzinostatin, sandwich ELISA)
Type: cell-based
Settings: Table 3
Procedure: FaDu cells were purchased from ATCC and maintained in MEM alpha medium (Life Technologies, cat. no. 12561) supplemented with 10% fetal bovine serum, and 1% GlutaMAX at 37° C. supplemented with 5% CO2. 50,000 cells were seeded to each well of a 96-well cell culture plate in 50 μL of culture medium and incubated for 16-24 hours. Three-fold serially diluted compounds were prepared in DMSO. Culture media was used to prepare compound treatments to 0.3% DMSO (dimethyl sulphoxide) content. Compound treatments were added to the cells for 1 hour prior incubation, followed by the addition of neocarzinostatin in fresh culture medium to 1 μg/mL final concentration for an additional 2 hours incubation to induce DNA DSBs (double-strand breaks). DMSO controls were incubated with fresh culture medium alone for the additional two hours incubation. The cells were then lysed and frozen at −20° C. Cell lysates were thawed on wet ice and protein concentrations quantified by BCA Protein Assay (Thermo # 23225). Lysis buffer was used to normalize lysates by protein content and all lysates were then investigated by sandwich ELISA by means of DNA-PK-specific antibodies (Abcam ab44815: total DNA-PK; ab124918: phosphoserine-2056 DNA-PK) in sandwich ELISA format on the MSD S600MM platform (MesoScale Discovery). % inhibition was calculated for all data points: =1−(DATA_PT−AVERAGE(DMSO controls))/(AVERAGE(NCS controls)−AVERAGE(DMSO controls)). Logarithm of the molar concentration of compound was plotted against percent inhibition to calculate IC50 values, with curve fit settings for data fit to log(inhibitor) vs. normalized response—Variable slope using curve fit software (GraphPad Prism).

Row | Compound | IC50 [nM]
1 | Cc1ccc(F)c(N[C@H]2CC[C@@H](Oc3nc(N4CCOCC4)cc4ncc(NS(C)(=O)=O)cc34)CC2)n1 [LFA1001, N-[5-[4-[(3-fluoro-6-methyl-2-pyridyl)amino]cyclohexoxy]-7-morpholino-1,6-naphthyridin-3-yl]methanesulfonamide] | 100 to 1000
2 | CS(=O)(=O)Nc1cnc2cc(N3CCOCC3)nc(O[C@H]3CC[C@@H](Nc4cccnc4)CC3)c2c1 [LFA1002, N-[7-morpholino-5-[4-(3-pyridylamino)cyclohexoxy]-1,6-naphthyridin-3-yl]methanesulfonamide] | < 100
3 | COc1cccnc1N[C@H]1CC[C@@H](Oc2nc(N3CCOCC3)cc3ncc(NS(C)(=O)=O)cc23)CC1 [LFA1005, N-[5-[4-[(3-methoxy-2-pyridyl)amino]cyclohexoxy]-7-morpholino-1,6-naphthyridin-3-yl]methanesulfonamide] | < 100
4 | Cc1cccc(N[C@H]2CC[C@@H](Oc3nc(N4CCOCC4)cc4ncc(NS(C)(=O)=O)cc34)CC2)n1 [LFA1006, N-[5-[4-[(6-methyl-2-pyridyl)amino]cyclohexoxy]-7-morpholino-1,6-naphthyridin-3-yl]methanesulfonamide] | < 100
5 | CS(=O)(=O)Nc1cnc2cc(N3CCOCC3)nc(O[C@H]3CC[C@@H](Nc4ncccc4F)CC3)c2c1 [LFA1007, N-[5-[4-[(3-fluoro-2-pyridyl)amino]cyclohexoxy]-7-morpholino-1,6-naphthyridin-3-yl]methanesulfonamide] | < 100
6 | CS(=O)(=O)Nc1cnc2cc(N3CCOCC3)nc(O[C@H]3CC[C@@H](Nc4ncccc4C#N)CC3)c2c1 [LFA1008, N-[5-[4-[(3-cyano-2-pyridyl)amino]cyclohexoxy]-7-morpholino-1,6-naphthyridin-3-yl]methanesulfonamide] | < 100
7 | Cc1cnc(N[C@H]2CC[C@@H](Oc3nc(N4CCOCC4)cc4ncc(NS(C)(=O)=O)cc34)CC2)c(C)c1 [LFA1009, N-[5-[4-[(3,5-dimethyl-2-pyridyl)amino]cyclohexoxy]-7-morpholino-1,6-naphthyridin-3-yl]methanesulfonamide] | < 100
8 | COc1ccc(C)nc1N[C@H]1CC[C@@H](Oc2nc(N3CCOCC3)cc3ncc(NS(C)(=O)=O)cc23)CC1 [LFA1010, N-[5-[4-[(3-methoxy-6-methyl-2-pyridyl)amino]cyclohexoxy]-7-morpholino-1,6-naphthyridin-3-yl]methanesulfonamide] | 100 to 1000
9 | Cc1cnc(N[C@H]2CC[C@@H](Oc3nc(N4CCOCC4)cc4ncc(NS(C)(=O)=O)cc34)CC2)c(F)c1 [LFA1011, N-[5-[4-[(3-fluoro-5-methyl-2-pyridyl)amino]cyclohexoxy]-7-morpholino-1,6-naphthyridin-3-yl]methanesulfonamide] | < 100
10 | Cc1ccncc1N[C@H]1CC[C@@H](Oc2nc(N3CCOCC3)cc3ncc(NS(C)(=O)=O)cc23)CC1 [LFA1012] | < 100
11 | Cc1ncccc1N[C@H]1CC[C@@H](Oc2nc(N3CCOCC3)cc3ncc(NS(C)(=O)=O)cc23)CC1 [LFA1015, N-[5-[4-[(2-methyl-3-pyridyl)amino]cyclohexoxy]-7-morpholino-1,6-naphthyridin-3-yl]methanesulfonamide] | < 100
12 | COc1ccncc1N[C@H]1CC[C@@H](Oc2nc(N3CCOCC3)cc3ncc(NS(C)(=O)=O)cc23)CC1 [LFA1016, N-[5-[4-[(4-methoxy-3-pyridyl)amino]cyclohexoxy]-7-morpholino-1,6-naphthyridin-3-yl]methanesulfonamide] | < 100
13 | Cc1ccc(N[C@H]2CC[C@@H](Oc3nc(N4CCOCC4)cc4ncc(NS(C)(=O)=O)cc34)CC2)cn1 [LFA1017, N-[5-[4-[(6-methyl-3-pyridyl)amino]cyclohexoxy]-7-morpholino-1,6-naphthyridin-3-yl]methanesulfonamide] | 100 to 1000
14 | Cc1nc(N[C@H]2CC[C@@H](Oc3nc(N4CCOCC4)cc4ncc(NS(C)(=O)=O)cc34)CC2)ccc1F [LFA1018, N-[5-[4-[(5-fluoro-6-methyl-2-pyridyl)amino]cyclohexoxy]-7-morpholino-1,6-naphthyridin-3-yl]methanesulfonamide] | < 100
15 | Cc1ccc(N[C@H]2CC[C@@H](Oc3nc(N4CCOCC4)cc4ncc(NS(C)(=O)=O)cc34)CC2)nc1 [LFA1019, N-[5-[4-[(5-methyl-2-pyridyl)amino]cyclohexoxy]-7-morpholino-1,6-naphthyridin-3-yl]methanesulfonamide] | < 100
16 | CS(=O)(=O)Nc1cnc2cc(N3CCOCC3)nc(O[C@H]3CC[C@@H](Nc4cccnn4)CC3)c2c1 [LFA1020, N-[7-morpholino-5-[4-(pyridazin-3-ylamino)cyclohexoxy]-1,6-naphthyridin-3-yl]methanesulfonamide] | < 100
17 | CS(=O)(=O)Nc1cnc2cc(N3CCOCC3)nc(O[C@H]3CC[C@@H](Nc4ccc(C(F)(F)F)cn4)CC3)c2c1 [LFA1021, N-[7-morpholino-5-[4-[[5-(trifluoromethyl)-2-pyridyl]amino]cyclohexoxy]-1,6-naphthyridin-3-yl]methanesulfonamide] | < 100

Results, then the compound that gave them:

Row | IC50 [nM] | Compound
18 | < 100 | CNC(=O)c1ccnc(N[C@H]2CC[C@@H](Oc3nc(N4CCOCC4)cc4ncc(NS(C)(=O)=O)cc34)CC2)n1
19 | < 100 | Cc1cccnc1N[C@H]1CC[C@@H](Oc2nc(N3CCOCC3)cc3ncc(NS(C)(=O)=O)cc23)CC1 [LFA1003, N-[5-[4-[(3-methyl-2-pyridyl)amino]cyclohexoxy]-7-morpholino-1,6-naphthyridin-3-yl]methanesulfonamide]
20 | < 100 | CS(=O)(=O)Nc1cnc2cc(N3CCOCC3)nc(O[C@H]3CC[C@@H](Nc4ccc(F)cn4)CC3)c2c1 [LFA1004, N-[5-[4-[(5-fluoro-2-pyridyl)amino]cyclohexoxy]-7-morpholino-1,6-naphthyridin-3-yl]methanesulfonamide]
21 | 100 to 1000 | COc1cncc(N[C@H]2CC[C@@H](Oc3nc(N4CCOCC4)cc4ncc(NS(C)(=O)=O)cc34)CC2)c1 [LFA1013, N-[5-[4-[(5-methoxy-3-pyridyl)amino]cyclohexoxy]-7-morpholino-1,6-naphthyridin-3-yl]methanesulfonamide]
22 | < 100 | CS(=O)(=O)Nc1cnc2cc(N3CCOCC3)nc(O[C@H]3CC[C@@H](Nc4ccncc4Br)CC3)c2c1 [LFA1014, N-[5-[4-[(3-bromo-4-pyridyl)amino]cyclohexoxy]-7-morpholino-1,6-naphthyridin-3-yl]methanesulfonamide]
23 | < 100 | CS(=O)(=O)Nc1cnc2cc(N3CCOCC3)nc(O[C@H]3CC[C@@H](Nc4ccc(C#N)cn4)CC3)c2c1 [LFA1022, N-[5-[4-[(5-cyano-2-pyridyl)amino]cyclohexoxy]-7-morpholino-1,6-naphthyridin-3-yl]methanesulfonamide]
24 | < 100 | CS(=O)(=O)Nc1cnc2cc(N3CCOCC3)nc(O[C@H]3CC[C@@H](Nc4ccc(C#N)nn4)CC3)c2c1 [LFA1023, N-[5-[4-[(6-cyanopyridazin-3-yl)amino]cyclohexoxy]-7-morpholino-1,6-naphthyridin-3-yl]methanesulfonamide]
25 | < 100 | CS(=O)(=O)Nc1cnc2cc(N3CCOCC3)nc(O[C@H]3CC[C@@H](Nc4ncc(F)cc4F)CC3)c2c1 [LFA1024, N-[5-[4-[(3,5-difluoro-2-pyridyl)amino]cyclohexoxy]-7-morpholino-1,6-naphthyridin-3-yl]methanesulfonamide]

— patent US20240246960A1 (adMare Therapeutics Society, priority 2021, published 2024)
